Molecular target: human Cav2.2 (Homo sapiens, UniProt Q00975)
Assay: Assessment of calcium channel activity using FLIPR (Ca2+ influx in IMR32 cells)
Assay type: cell-based
Conditions: not given
Procedure, shortened: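 Human neuroblastoma IMR32 cells were seeded at 1−1.2×10^5 cells/well and cultured 48 h at 37 °C before FLIPR calcium influx measurement. Percent inhibition at each concentration was calculated against the no-inhibitor signal, and IC50 came from sigmoidal dose-response fits.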

Chain of human Cav2.2 (Q00975 whole entry): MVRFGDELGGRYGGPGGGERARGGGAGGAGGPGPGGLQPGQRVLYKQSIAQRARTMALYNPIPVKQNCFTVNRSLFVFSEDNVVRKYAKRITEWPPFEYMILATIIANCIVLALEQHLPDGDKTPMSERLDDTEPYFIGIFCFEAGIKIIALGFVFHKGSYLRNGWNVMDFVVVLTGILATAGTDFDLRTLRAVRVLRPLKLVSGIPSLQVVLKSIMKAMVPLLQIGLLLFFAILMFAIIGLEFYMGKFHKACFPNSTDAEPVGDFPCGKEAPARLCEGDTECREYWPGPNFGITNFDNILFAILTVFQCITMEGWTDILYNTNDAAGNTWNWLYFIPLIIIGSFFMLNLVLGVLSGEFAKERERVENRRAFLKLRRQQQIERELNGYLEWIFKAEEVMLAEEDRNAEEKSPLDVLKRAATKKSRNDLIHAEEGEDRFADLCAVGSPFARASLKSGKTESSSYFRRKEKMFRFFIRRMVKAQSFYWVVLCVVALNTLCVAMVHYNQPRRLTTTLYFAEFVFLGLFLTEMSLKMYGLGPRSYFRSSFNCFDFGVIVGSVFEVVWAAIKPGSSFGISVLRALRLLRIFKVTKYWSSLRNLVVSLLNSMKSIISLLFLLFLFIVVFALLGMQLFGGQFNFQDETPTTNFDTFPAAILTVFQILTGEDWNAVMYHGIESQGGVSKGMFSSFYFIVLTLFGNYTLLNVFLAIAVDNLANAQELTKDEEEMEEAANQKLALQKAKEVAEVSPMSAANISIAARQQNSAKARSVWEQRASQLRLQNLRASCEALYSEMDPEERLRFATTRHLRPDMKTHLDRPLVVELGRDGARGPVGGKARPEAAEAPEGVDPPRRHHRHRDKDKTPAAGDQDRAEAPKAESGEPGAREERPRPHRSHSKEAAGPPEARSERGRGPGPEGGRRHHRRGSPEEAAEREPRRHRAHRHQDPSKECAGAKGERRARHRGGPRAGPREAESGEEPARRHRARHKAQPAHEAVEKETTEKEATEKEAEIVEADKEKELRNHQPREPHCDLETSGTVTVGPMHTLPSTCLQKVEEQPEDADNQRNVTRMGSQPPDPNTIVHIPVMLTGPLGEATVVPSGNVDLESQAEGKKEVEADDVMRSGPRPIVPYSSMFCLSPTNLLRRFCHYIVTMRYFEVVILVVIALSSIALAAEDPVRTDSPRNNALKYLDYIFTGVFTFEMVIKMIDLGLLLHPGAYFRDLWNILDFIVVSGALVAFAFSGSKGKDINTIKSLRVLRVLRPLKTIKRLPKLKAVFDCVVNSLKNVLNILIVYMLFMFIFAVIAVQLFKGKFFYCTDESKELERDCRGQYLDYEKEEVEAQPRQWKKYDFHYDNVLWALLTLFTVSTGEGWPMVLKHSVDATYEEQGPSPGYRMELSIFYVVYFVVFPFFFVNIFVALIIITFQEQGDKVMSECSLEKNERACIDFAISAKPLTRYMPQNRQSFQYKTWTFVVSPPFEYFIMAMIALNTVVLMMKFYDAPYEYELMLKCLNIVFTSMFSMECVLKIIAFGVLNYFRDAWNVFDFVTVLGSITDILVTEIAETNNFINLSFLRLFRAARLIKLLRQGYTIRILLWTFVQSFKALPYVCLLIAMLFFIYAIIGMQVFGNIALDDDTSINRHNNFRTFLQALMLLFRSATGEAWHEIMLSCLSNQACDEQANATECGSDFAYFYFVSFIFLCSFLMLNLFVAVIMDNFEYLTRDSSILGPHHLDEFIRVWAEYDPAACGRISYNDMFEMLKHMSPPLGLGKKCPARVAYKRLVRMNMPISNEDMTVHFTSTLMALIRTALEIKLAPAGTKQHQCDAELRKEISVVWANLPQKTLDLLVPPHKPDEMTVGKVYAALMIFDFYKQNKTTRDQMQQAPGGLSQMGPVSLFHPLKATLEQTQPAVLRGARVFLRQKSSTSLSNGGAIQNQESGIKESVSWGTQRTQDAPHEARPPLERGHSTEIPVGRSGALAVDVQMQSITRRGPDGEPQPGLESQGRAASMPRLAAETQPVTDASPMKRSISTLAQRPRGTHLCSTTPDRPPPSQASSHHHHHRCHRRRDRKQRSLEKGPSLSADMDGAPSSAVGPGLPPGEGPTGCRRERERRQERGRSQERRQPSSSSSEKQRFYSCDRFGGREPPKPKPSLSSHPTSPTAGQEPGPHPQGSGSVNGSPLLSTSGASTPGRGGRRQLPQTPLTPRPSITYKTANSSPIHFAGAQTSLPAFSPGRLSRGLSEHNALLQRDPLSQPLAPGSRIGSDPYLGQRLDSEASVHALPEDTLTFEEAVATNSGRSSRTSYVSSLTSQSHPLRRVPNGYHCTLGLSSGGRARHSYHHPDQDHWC
Chain of human Cav2.2 (P54289 25-956 partner limits assumed): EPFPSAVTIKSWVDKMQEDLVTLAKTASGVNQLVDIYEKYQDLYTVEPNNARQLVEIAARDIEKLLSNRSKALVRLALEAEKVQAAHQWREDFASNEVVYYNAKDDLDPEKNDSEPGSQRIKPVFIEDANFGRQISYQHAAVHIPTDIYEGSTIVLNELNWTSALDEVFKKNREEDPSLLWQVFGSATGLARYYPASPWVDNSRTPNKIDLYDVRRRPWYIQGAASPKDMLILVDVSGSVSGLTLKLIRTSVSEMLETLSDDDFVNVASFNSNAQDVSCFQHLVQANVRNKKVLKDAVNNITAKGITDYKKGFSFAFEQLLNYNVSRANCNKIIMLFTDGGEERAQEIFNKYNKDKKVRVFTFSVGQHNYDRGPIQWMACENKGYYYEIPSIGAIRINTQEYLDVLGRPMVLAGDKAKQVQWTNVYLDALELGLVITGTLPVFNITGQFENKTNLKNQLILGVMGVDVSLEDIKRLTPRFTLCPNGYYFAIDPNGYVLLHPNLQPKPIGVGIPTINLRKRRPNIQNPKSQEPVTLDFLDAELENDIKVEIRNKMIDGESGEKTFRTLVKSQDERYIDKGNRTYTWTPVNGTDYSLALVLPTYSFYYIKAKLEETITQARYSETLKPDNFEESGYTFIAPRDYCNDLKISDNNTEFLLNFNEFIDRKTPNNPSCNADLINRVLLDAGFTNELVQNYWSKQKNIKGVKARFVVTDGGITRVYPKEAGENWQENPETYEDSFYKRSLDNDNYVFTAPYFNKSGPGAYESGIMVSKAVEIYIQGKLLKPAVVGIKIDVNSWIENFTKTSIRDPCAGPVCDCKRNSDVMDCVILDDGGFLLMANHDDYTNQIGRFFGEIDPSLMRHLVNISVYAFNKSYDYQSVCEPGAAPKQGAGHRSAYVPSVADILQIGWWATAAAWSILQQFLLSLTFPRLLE
Chain of human Cav2.2 (P54289 957-1103 partner limits assumed): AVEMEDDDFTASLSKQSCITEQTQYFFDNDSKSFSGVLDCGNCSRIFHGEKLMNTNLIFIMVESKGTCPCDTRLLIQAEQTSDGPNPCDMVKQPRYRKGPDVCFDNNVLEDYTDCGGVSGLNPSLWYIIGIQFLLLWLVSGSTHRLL
Chain of human Cav2.2 (P54284 whole entry partner): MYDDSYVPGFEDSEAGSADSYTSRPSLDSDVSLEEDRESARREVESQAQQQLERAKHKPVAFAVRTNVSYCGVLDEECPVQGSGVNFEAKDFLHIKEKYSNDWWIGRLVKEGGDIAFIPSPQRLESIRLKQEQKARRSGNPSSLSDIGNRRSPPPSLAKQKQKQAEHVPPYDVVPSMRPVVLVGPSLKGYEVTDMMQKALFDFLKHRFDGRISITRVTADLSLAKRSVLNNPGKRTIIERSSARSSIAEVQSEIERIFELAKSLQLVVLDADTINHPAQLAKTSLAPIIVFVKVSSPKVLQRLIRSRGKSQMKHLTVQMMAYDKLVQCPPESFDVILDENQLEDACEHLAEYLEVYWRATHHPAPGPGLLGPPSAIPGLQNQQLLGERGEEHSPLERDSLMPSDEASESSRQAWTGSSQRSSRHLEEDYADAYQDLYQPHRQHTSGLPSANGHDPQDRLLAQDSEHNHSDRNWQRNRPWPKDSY

IC50 [µM]	Compound
> 30	CCC[C@H](NC(C)C)C(=O)N[C@H]1CC[C@@H]2CN(Cc3ccccc3)C[C@@H]21 [Example 494, N^1-[(3aR,4S,6aS)-2-benzyloctahydrocyclopenta[c]pyrrol-4-yl]-N^2-isopropyl-L-norvalinamide]
> 3	CN[C@@H](CO)C(=O)N[C@H]1CC[C@@H]2CN(c3ccc(C(F)(F)F)cc3)C[C@@H]21 [Example 749, N^2-methyl-N-{(3aR,4S,6aS)-2-[4-(trifluoromethyl)phenyl]octahydrocyclopenta[c]pyrrol-4-yl}-L-serinamide]
> 30	COc1ccc(N2C[C@H]3CC[C@H](NC(=O)[C@@H]4C[C@@H](F)CN4)[C@H]3C2)cc1 [Example 653, (4R)-4-fluoro-N-[(3aR,4S,6aS)-2-(4-methoxyphenyl)octahydrocyclopenta[c]pyrrol-4-yl]-L-prolinamide]
2.8	O=C(Nc1ccc(F)c(Cl)c1)N[C@H]1CC[C@@H]2CN(c3cccc(C(F)(F)F)n3)C[C@@H]21 [Example 714, 1-(3-chloro-4-fluorophenyl)-3-{(3aR,4S,6aS)-2-[6-(trifluoromethyl)pyridin-2-yl]octahydrocyclopenta[c]pyrrol-4-yl}urea]
1.66	FC(F)(F)c1cccc(N2C[C@H]3CC[C@H](NCc4c[nH]c5ccc(Cl)cc45)[C@H]3C2)n1 [Example 680, (3aR,4S,6aS)-N-[(5-chloro-1H-indol-3-yl)methyl]-2-[6-(trifluoromethyl)pyridin-2-yl]octahydrocyclopenta[c]pyrrol-4-amine]
6.4	N[C@H]1CC[C@@H]2CN(c3ccc(C(F)(F)F)cc3)C[C@@H]21 [Example 607, (3aR,4S,6aS)-2-[4-(trifluoromethyl)phenyl]octahydrocyclopenta[c]pyrrol-4-amine]
6.46	CCC[C@H](N)C(=O)N[C@@H]1CC[C@H]2CN(S(=O)(=O)c3ccc(C(F)(F)F)cc3)C[C@H]21 [Example 423, N^1-((3aS,4R,6aR)-2-{[4-(trifluoromethyl)phenyl]sulfonyl}octahydrocyclopenta[c]pyrrol-4-yl)-L-norvalinamide]
3.57	O=C(N[C@H]1CC[C@@H]2CN(c3cccc(Cl)c3)C[C@@H]21)[C@@H]1C[C@@H](F)CN1 [Example 643, (4R)-N-[(3aR,4S,6aS)-2-(3-chlorophenyl)octahydrocyclopenta[c]pyrrol-4-yl]-4-fluoro-L-prolinamide]

Same assay, conditions: read-out: IC50 (μM) or percent inhibition (* indicates 3 minute incubation, otherwise 60 minute); IC50; 60 minute pre-incubation with compound; IMR32 cells, 80 mM KCl depolarization

IC50 [µM]	Compound
2.8	CCC[C@@H](C(=O)N[C@@H]1CC[C@H]2CN(Cc3ccccc3)C[C@H]21)N(C)C(=O)OC(C)(C)C [Example 233, tert-butyl(S)-1-((3aS,4R,6aR)-2-benzyloctahydrocyclopenta[c]pyrrol-4-ylamino)-1-oxopentan-2-yl(methyl)carbamate]
0.82	CC(C)C[C@@H](NC(=O)OC(C)(C)C)C(=O)N[C@H]1CC[C@H]2CN(Cc3cccc(C(F)(F)F)c3)C[C@H]21 (stereo in doubt) [Example 138, N^2-(tert-butyloxycarbonyl)-N^1-{(3aS*,4S*,6aR*)-2-[3-(trifluoromethyl)benzyl]octahydrocyclopenta[c]pyrrol-4-yl}-D-leucinamide]
12.8	CC(C)(C)[C@H](NS(C)(=O)=O)C(=O)N[C@H]1CC[C@@H]2CN(Cc3ccc(C(F)(F)F)cc3)C[C@@H]21 [Example 520, 3-methyl-N^2-(methylsulfonyl)-N^1-{(3aR,4S,6aS)-2-[4-(trifluoromethyl)benzyl]octahydrocyclopenta[c]pyrrol-4-yl}-L-valinamide]
8.6	CN[C@@H](CC(C)C)C(=O)N[C@H]1CC[C@@H]2CN(Cc3cccc(C(F)(F)F)c3)C[C@@H]21 [Example 379, N^2-methyl-N^1-{(3aR,4S,6aS)-2-[3-(trifluoromethyl)benzyl]octahydrocyclopenta[c]pyrrol-4-yl}-L-leucinamide]

Compound	IC50 [µM]
N-methyl-N-((3aR,4S,6aS)-2-{[3-(trifluoromethyl)phenyl]sulfonyl}octahydrocyclopenta[c]pyrrol-4-yl)-L-phenylalaninamide [Example 386]	1.62
